The subject of assay [1] is HeLa cells. The experiment in a line: Fas induced killing of HeLa cells treated with pharmacological agents, count of viable trypan blue excluding cells. Format: cell-based, human. The note with it: for effect on Fas induced PCD of HeLa cells, in words (viable cell count): anti-Fas antibody treated HeLa cells, NAC: 50 ng/ml anti-Fas, 5 days, FIG. 6, 8E, 8G, 8H. How it is done:
HeLa cells, 1.6×10^5 cells/well were plated in 6 wells plates. 20-24 hours later cells were treated with various concentrations of sulfinpyrazone (Sigma/Aldrich) in 1% DMSO for 15 minutes prior to the addition of 200 ng/ml anti-Fas antibody (clone CH-11, Kamiya Biomedical Company). The number of viable, trypan blue (Gibco/BRL) excluding cells that remained attached to the plate following rinsing with PBS was counted 17 hours post treatment. […]

In assay [2] the target is Fas/CD95/Apo-1 on HeLa cells (human) (UniProt P25445). The experiment in a line: cell-based or functional assay.
Assay [3] relates to HeLa cells. The experiment in a line: Apoptotic index (DAPI staining) of HeLa cells treated with anti-Fas antibody. In kind it is cell-based, human. As for the experimental part: To generate HeLa cells that over-express Nrf2, the human Nrf2 cDNA (Moi et al. 1994) was cloned into the retrovirus expression vector pBABEpuro (Morgenstern and Land 1990) by standard methods. The plasmid was transiently transfected into […] and virus was collected at 36, 48, 60 and 72 hours post transfection. At each time point, freshly collected virus stock was filtered through a […], mixed with […] polybrene (Sigma/Aldrich) and applied to HeLa cells. 24 hours after the last addition of the virus, the cells were subjected to selection in […] Puromycin (Sigma/Aldrich). The pool of Puromycin resistant colonies was expanded. […] Apoptotic index was calculated as the ratio of number of dead cells (containing condensed and/or fragmented chromosomes) to the total number of cells. Average apoptotic index calculated from ten fields from duplicate wells is presented.
For bioassays, HeLa cells, at 8.3×10^4 cells/well were plated in 12 wells plates. […] 20 hours later the apoptotic index of treated cells was determined as described for the Nrf2 bioassays.
HeLa cells, 1.6×10^5 cells/well were plated in 6 wells plates. […] The number of viable, trypan blue (Gibco/BRL) excluding cells that remained attached to the plate following rinsing with PBS was counted 17 hours post treatment. Alternatively, the apoptotic index of treated cells was determined as described for the Nrf2 bioassays.

UniProt P25445, sequence (P25445 26-335): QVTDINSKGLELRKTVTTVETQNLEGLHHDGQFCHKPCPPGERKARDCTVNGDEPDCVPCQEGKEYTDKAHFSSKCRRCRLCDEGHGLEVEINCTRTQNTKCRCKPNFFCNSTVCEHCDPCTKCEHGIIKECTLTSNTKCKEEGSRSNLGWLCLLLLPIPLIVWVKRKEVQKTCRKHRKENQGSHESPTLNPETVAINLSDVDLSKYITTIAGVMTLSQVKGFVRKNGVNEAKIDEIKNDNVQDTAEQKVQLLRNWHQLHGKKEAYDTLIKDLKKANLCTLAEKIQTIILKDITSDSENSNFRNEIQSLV

On to `O=C1C(CC[S+]([O-])c2ccccc2)C(=O)N(c2ccccc2)N1c1ccccc1` (stereo not shown) [sulfinpyrazone], for which, in the assay with HeLa cells [1] (2 mM sulfinpyrazone, 200 ng/ml anti-Fas antibody, counted 17 hours post treatment, FIG. 8G), the “sensitization to Fas induced killing compared to treatment with vehicle alone” value is on record as “approximately 4 fold”.
For the compound `NCCNS(=O)(=O)c1ccc(Cl)c2ccncc12` [CKI-7, N-(2-aminoethyl)-5-chloroisoquinoline-8-sulfonamide], in the assay with HeLa cells [1] (CKI-7 in 1% DMSO added an hour before 200 ng/ml anti-FAS antibody, counted 17 hours post treatment, FIG. 6), the “fold more sensitive to FAS induced PCD than the untreated cells” value is recorded as 3.9 fold. In addition, the “effect on Fas induced PCD of HeLa cells, in words (viable cell count)” value (shortened to “effect on Fas induced PCD … (viable cell count)”) with HeLa cells [1] was “sensitizes”.
In assay [2], “Anti-Fas antibody (clone CH-11, Kamiya Biomedical Company, catalog number MC-060)” displayed an apoptotic index (DAPI staining), HeLa cells infected with vector alone (Control-1) of 89%; an apoptotic index (DAPI staining), HeLa cells infected with vector alone (Control-2) of 87%; an apoptotic index (DAPI staining), HeLa cells with vehicle of 25%; an apoptotic index (DAPI staining), HeLa cells with vehicle (0 uM Dicumarol) of 25%.
On to `O=c1oc2ccccc2c(O)c1Cc1c(O)c2ccccc2oc1=O` [Dicumarol], for which, in the assay with HeLa cells [1] (100 uM Dicumarol, 200 ng/ml anti-Fas antibody, counted 17 hours post treatment, FIG. 8E), the “fold more sensitive to Fas induced killing compared to cells treated with vehicle, measured by the number of viable cells” value is 2.8 fold. Further, the “effect on Fas induced PCD … (viable cell count)” value in the assay on HeLa cells [1] is listed as “sensitizes”. Moreover, the “killing (apoptotic index) in cells treated with anti-Fas antibody and Dicumarol” value with HeLa cells [3] (100 uM Dicumarol, 200 ng/ml anti-Fas antibody, vehicle (0 uM) approximately 25%, FIG. 8F) is “approximately 100%”. Also, the “effect on Fas induced PCD of HeLa cells, in words (apoptotic index)” value in the assay with HeLa cells [3] (anti-Fas antibody treated HeLa cells, FIG. 8C, 8D, 8F legends) is “sensitizes”.
As to `CC(=O)N[C@@H](CS)C(=O)O` [NAC, N-acetyl Cysteine], the figures for the “effect on Fas induced PCD … (viable cell count)” value with HeLa cells [1] and in the assay on HeLa cells [1] (listed as N-acetyl cysteine) were “strongly protects” and “protects”, respectively.
